Measured values from article PMC7723751 (Bioorganic chemistry, 2020).

Tests used:
human FAAH enzyme = target: T1, human FAAH enzyme (Homo sapiens, UniProt O00519); assay: Human FAAH enzyme inhibition assay; type: biochemical
T1 sequence (O00519 1-579): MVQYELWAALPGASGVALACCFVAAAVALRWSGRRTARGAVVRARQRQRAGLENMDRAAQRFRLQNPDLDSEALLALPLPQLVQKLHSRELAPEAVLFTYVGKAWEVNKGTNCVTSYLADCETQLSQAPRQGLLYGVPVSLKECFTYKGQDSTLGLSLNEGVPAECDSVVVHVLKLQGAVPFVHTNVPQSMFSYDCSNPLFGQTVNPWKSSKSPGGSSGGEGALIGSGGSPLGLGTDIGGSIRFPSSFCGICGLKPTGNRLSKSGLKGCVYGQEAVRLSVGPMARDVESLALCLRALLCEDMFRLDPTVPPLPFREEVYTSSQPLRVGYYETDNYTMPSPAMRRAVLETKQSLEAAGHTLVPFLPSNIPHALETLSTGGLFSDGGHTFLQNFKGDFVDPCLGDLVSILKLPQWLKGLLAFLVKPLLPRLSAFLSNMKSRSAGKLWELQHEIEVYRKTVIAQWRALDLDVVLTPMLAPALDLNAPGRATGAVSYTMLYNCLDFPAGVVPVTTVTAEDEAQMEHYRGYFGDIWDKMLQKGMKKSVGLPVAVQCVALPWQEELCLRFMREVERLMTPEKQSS

Human sEH = target: T2, Human sEH (Homo sapiens, UniProt P34913); assay: Human sEH inhibition assay; type: biochemical; conditions: sEH IC50, human sEH 1 nM, CMNPC 5 μM, pH 7.0, 30 °C
T2 sequence (P34913 1-555): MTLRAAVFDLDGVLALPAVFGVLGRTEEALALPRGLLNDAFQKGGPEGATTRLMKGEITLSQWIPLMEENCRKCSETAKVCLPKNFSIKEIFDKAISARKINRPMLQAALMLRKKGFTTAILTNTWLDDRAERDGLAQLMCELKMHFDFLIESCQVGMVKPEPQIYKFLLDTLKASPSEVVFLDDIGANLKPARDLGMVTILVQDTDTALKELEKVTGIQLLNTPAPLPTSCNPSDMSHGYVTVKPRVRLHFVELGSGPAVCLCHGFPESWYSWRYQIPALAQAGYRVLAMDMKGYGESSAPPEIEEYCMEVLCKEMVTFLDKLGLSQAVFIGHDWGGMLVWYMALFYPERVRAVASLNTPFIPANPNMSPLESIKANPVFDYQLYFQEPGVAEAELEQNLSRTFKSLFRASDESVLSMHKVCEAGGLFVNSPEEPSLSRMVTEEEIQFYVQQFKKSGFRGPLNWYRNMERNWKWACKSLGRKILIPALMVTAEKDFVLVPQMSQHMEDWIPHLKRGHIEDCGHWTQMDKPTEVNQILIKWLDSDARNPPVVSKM

| SMILES | IC50 (human FAAH enzyme) [nM] | IC50 (Human sEH) [nM] |
| --- | --- | --- |
| O=C(Nc1ccc(-c2nc3ccccc3s2)cc1)C1CCN(S(=O)(=O)c2ccc(Br)cc2)CC1 [Compound 4-16, N-(4-(benzo[d]thiazol-2-yl)phenyl)-1-((4-bromophenyl)sulfonyl)piperidine-4-carboxamide] | 185 | 580 |
| O=C(Nc1ccc(-c2nc3ccccc3s2)cc1)C1CCN(S(=O)(=O)c2cc(Br)c(Cl)s2)CC1 [Compound 4-2, N-(4-(benzo[d]thiazol-2-yl)phenyl)-1-((4-bromo-5-chlorothiophen-2-yl)sulfonyl)piperidine-4-carboxamide] | 2700 | 5900 |
| O=C(Nc1ccc(-c2nc3ccccc3s2)cc1)C1CCN(S(=O)(=O)c2c(F)c(F)c(F)c(F)c2F)CC1 [Compound 4-30, N-(4-(benzo[d]thiazol-2-yl)phenyl)-1-((perfluorophenyl)sulfonyl)piperidine-4-carboxamide] | > 10000 | 2670 |
| O=C(Nc1ccc(-c2nc3ccccc3s2)cc1)C1CCN(S(=O)(=O)c2ccccc2F)CC1 [Compound 4-4, N-(4-(benzo[d]thiazol-2-yl)phenyl)-1-((2-fluorophenyl)sulfonyl)piperidine-4-carboxamide] | 1.3 | 150 |
| O=C(Nc1ccc(-c2nc3ccccc3s2)cc1)C1CCN(S(=O)(=O)c2ccccc2Br)CC1 [Compound 4-6, N-(4-(benzo[d]thiazol-2-yl)phenyl)-1-((2-bromophenyl)sulfonyl)piperidine-4-carboxamide] | 6.1 | 24 |
| Cc1ccc(S(=O)(=O)N2CCC(C(=O)Nc3ccc(-c4nc5ccccc5s4)cc3)CC2)c(C)c1 [Compound 4-22, N-(4-(benzo[d]thiazol-2-yl)phenyl)-1-((2,4-dimethylphenyl)sulfonyl)piperidine-4-carboxamide] | 5.5 | 29.2 |
| COc1ccccc1S(=O)(=O)N1CCC(C(=O)Nc2ccc(-c3nc4ccccc4s3)cc2)CC1 [Compound 4-8, N-(4-(benzo[d]thiazol-2-yl)phenyl)-1-((2-methoxyphenyl)sulfonyl)piperidine-4-carboxamide] | 80 | 26 |
| Cc1ccccc1S(=O)(=O)N1CCC(C(=O)Nc2ccc(-c3nc4ccccc4s3)cc2)CC1 [Compound 4-7, N-(4-(benzo[d]thiazol-2-yl)phenyl)-1-(o-tolylsulfonyl)piperidine-4-carboxamide] | 9.6 | 35 |
| Cc1ccc(S(=O)(=O)N2CCC(C(=O)Nc3ccc(-c4nc5ccccc5s4)cc3)CC2)cc1 [Compound 4-17, N-(4-(benzo[d]thiazol-2-yl)phenyl)-1-tosylpiperidine-4-carboxamide] | > 10000 | 370 |
| O=C(Nc1ccc(-c2nc3ccccc3s2)cc1)C1CCN(S(=O)(=O)c2ccc(F)cc2)CC1 [Compound 4-14, N-(4-(benzo[d]thiazol-2-yl)phenyl)-1-((4-fluorophenyl)sulfonyl)piperidine-4-carboxamide] | 77 | 1300 |
| O=C(Nc1ccc(-c2nc3ccccc3s2)cc1)C1CCN(S(=O)(=O)c2cccc(Br)c2)CC1 [Compound 4-11, N-(4-(benzo[d]thiazol-2-yl)phenyl)-1-((3-bromophenyl)sulfonyl)piperidine-4-carboxamide] | 51.6 | 1100 |
| O=C(Nc1ccc(-c2nc3ccccc3s2)cc1)C1CCN(S(=O)(=O)c2ccc(Br)cc2Br)CC1 [Compound 4-21, N-(4-(benzo[d]thiazol-2-yl)phenyl)-1-((2,4-dibromophenyl)sulfonyl)piperidine-4-carboxamide] | 10 | 36 |
| Cc1cc(C)c(S(=O)(=O)N2CCC(C(=O)Nc3ccc(-c4nc5ccccc5s4)cc3)CC2)c(C)c1 [Compound 4-28, N-(4-(benzo[d]thiazol-2-yl)phenyl)-1-(mesitylsulfonyl)piperidine-4-carboxamide] | 84 | 790 |
| COc1ccc(S(=O)(=O)N2CCC(C(=O)Nc3ccc(-c4nc5ccccc5s4)cc3)CC2)cc1 [Compound 4-18, N-(4-(benzo[d]thiazol-2-yl)phenyl)-1-((4-methoxyphenyl)sulfonyl)piperidine-4-carboxamide] | > 10000 | 84 |

Next, values leading:

| IC50 (human FAAH enzyme) [nM] | IC50 (Human sEH) [nM] | SMILES |
| --- | --- | --- |
| 16 | 420 | O=C(Nc1ccc(-c2nc3ccccc3s2)cc1)C1CCN(S(=O)(=O)c2cccs2)CC1 [Compound 4-1, N-(4-(benzo[d]thiazol-2-yl)phenyl)-1-(thiophen-2-ylsulfonyl)piperidine-4-carboxamide] |
| 14.6 | 620 | COc1cccc(S(=O)(=O)N2CCC(C(=O)Nc3ccc(-c4nc5ccccc5s4)cc3)CC2)c1 [Compound 4-13, N-(4-(benzo[d]thiazol-2-yl)phenyl)-1-((3-methoxyphenyl)sulfonyl)piperidine-4-carboxamide] |
| 2230 | 840 | CC(C)c1cc(C(C)C)c(S(=O)(=O)N2CCC(C(=O)Nc3ccc(-c4nc5ccccc5s4)cc3)CC2)c(C(C)C)c1 [Compound 4-29, N-(4-(benzo[d]thiazol-2-yl)phenyl)-1-((2,4,6-triisopropylphenyl)sulfonyl)piperidine-4-carboxamide] |
| 13.4 | 1700 | O=C(Nc1ccc(-c2nc3ccccc3s2)cc1)C1CCN(S(=O)(=O)c2cccc(F)c2)CC1 [Compound 4-9, N-(4-(benzo[d]thiazol-2-yl)phenyl)-1-((3-fluorophenyl)sulfonyl)piperidine-4-carboxamide] |
| 250 | 6600 | O=C(Nc1ccc(-c2nc3ccccc3s2)cc1)C1CCN(S(=O)(=O)c2c(F)cc(F)cc2F)CC1 [Compound 4-26, N-(4-(benzo[d]thiazol-2-yl)phenyl)-1-((2,4,6-trifluorophenyl)sulfonyl)piperidine-4-carboxamide] |
| > 10000 | 1100 | O=C(Nc1ccc(-c2nc3ccccc3s2)cc1)C1CCN(S(=O)(=O)c2cc(F)cc(F)c2)CC1 [Compound 4-24, N-(4-(benzo[d]thiazol-2-yl)phenyl)-1-((3,5-difluorophenyl)sulfonyl)piperidine-4-carboxamide] |
| 260 | 710 | O=C(Nc1ccc(-c2nc3ccccc3s2)cc1)C1CCN(S(=O)(=O)c2ccc(Cl)cc2)CC1 [Compound 4-15, N-(4-(benzo[d]thiazol-2-yl)phenyl)-1-((4-chlorophenyl)sulfonyl)piperidine-4-carboxamide] |
| 11.4 | 195 | O=C(Nc1ccc(-c2nc3ccccc3s2)cc1)C1CCN(S(=O)(=O)c2ccc(F)cc2F)CC1 [Compound 4-19, N-(4-(benzo[d]thiazol-2-yl)phenyl)-1-((2,4-difluorophenyl)sulfonyl)piperidine-4-carboxamide] |
| 7.2 | 2400 | O=C(Nc1ccc(-c2nc3ccccc3s2)cc1)C1CCN(S(=O)(=O)c2cccc(Cl)c2)CC1 [Compound 4-10, N-(4-(benzo[d]thiazol-2-yl)phenyl)-1-((3-chlorophenyl)sulfonyl)piperidine-4-carboxamide] |
| > 10000 | 3600 | Cc1cc(C)cc(S(=O)(=O)N2CCC(C(=O)Nc3ccc(-c4nc5ccccc5s4)cc3)CC2)c1 [Compound 4-25, N-(4-(benzo[d]thiazol-2-yl)phenyl)-1-((3,5-dimethylphenyl)sulfonyl)piperidine-4-carboxamide] |
| 7 | 940 | Cc1cccc(S(=O)(=O)N2CCC(C(=O)Nc3ccc(-c4nc5ccccc5s4)cc3)CC2)c1 [Compound 4-12, N-(4-(benzo[d]thiazol-2-yl)phenyl)-1-(m-tolylsulfonyl)piperidine-4-carboxamide] |
| 36.2 | 180 | COc1ccc(S(=O)(=O)N2CCC(C(=O)Nc3ccc(-c4nc5ccccc5s4)cc3)CC2)c(OC)c1 [Compound 4-23, N-(4-(benzo[d]thiazol-2-yl)phenyl)-1-((2,4-dimethoxyphenyl)sulfonyl)piperidine-4-carboxamide] |
| 8.6 | 1100 | O=C(Nc1ccc(-c2nc3ccccc3s2)cc1)C1CCN(S(=O)(=O)c2ccccc2)CC1 [Compound 4-3, N-(4-(benzo[d]thiazol-2-yl)phenyl)-1-(phenylsulfonyl)piperidine-4-carboxamide] |
| 270 | 1300 | O=C(Nc1ccc(-c2nc3ccccc3s2)cc1)C1CCN(S(=O)(=O)c2c(Cl)cc(Cl)cc2Cl)CC1 [Compound 4-27, N-(4-(benzo[d]thiazol-2-yl)phenyl)-1-((2,4,6-trichlorophenyl)sulfonyl)piperidine-4-carboxamide] |
